From paper PMC6469940 (Science Advances, 2019) come the findings set out here.

The assay deals with T1, hM4D(Gi) (human M4 muscarinic receptor-based DREADD) (Homo sapiens, UniProt P08173, A203G/Y113C).
T1 construct: gene CHRM4; hM4D(Gi) plasmid (Addgene 45548)
T1 sequence (P08173 1-479 Y113C/A203G): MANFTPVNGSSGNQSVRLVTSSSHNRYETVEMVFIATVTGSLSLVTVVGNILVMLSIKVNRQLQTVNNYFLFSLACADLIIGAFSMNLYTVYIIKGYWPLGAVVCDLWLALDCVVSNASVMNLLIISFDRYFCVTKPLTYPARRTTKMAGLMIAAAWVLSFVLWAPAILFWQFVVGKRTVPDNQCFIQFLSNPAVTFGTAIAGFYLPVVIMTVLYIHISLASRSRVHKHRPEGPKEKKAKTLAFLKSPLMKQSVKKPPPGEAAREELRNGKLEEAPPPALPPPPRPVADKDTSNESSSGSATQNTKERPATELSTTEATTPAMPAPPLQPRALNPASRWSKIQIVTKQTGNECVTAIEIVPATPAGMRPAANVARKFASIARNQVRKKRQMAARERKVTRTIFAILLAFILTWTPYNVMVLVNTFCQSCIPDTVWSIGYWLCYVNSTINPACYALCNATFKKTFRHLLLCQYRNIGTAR
In words: whole-cell patch clamp of Kir3.[…] current potentiation in HEK cells transfected with hM4D(Gi). Type of assay: cell-based. (In patch-clamp work, channel activity is measured electrically.)

As usually defined, the EC50 is the midpoint of the concentration-response curve. Regarding `c1ccc2c(c1)N=C(N1CCNCC1)c1ccccc1N2` [C21, compound 21], the EC50 stood at 20 ± 4 nM.
As to `CN1CCN(C2=Nc3ccccc3Cc3ccccc32)CC1` [PLP, perlapine], the EC50 was found to be 40 ± 10 nM.
